Measured values as given in patent US20060281763A1, “Carboxamide inhibitors of TGFbeta” (priority 2005, published 2006).

target: T1, TGFβ R1 (Homo sapiens, UniProt P36897); assay: TGFβ R1 autophosphorylation protocol (33P-ATP, phosphocellulose filter plate); type: biochemical; settings: 10 uM ATP, 170 nM TGFβ R1, 20 minutes at room temperature, read-out: IC50 for Kinase Inhibition
T1 sequence (P36897 34-503): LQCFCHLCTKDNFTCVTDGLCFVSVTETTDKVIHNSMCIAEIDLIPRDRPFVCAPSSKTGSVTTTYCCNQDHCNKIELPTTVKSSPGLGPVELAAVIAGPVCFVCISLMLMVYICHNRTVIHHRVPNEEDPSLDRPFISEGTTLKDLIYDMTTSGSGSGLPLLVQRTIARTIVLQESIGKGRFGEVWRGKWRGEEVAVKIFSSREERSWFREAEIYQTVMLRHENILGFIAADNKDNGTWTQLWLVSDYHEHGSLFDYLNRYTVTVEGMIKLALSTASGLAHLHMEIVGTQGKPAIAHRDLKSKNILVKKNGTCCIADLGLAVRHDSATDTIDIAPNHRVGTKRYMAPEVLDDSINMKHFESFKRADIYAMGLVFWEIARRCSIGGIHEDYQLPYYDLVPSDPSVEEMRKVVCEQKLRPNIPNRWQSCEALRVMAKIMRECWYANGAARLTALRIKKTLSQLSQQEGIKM
In short: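 Radiometric autophosphorylation: 170 nM enzyme with compound (≤1% DMSO), 10 uM ATP plus γ-33P-ATP, […] in 20 mM MOPS pH 7, 20 min at room temperature. Reaction stopped on phosphocellulose filter, washed with H3PO4 and ethanol, counted by scintillation.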

| Compound | IC50 [nM] |
| --- | --- |
| COc1cnc(-c2cc(Cl)ccc2F)nc1Nc1ccncc1C(=O)NCCOCCO [Compound 104, 4-[2-(5-Chloro-2-fluoro-phenyl)-5-methoxy-pyrimidin-4-ylamino]-N-[2-(2-hydroxy-ethoxy)-ethyl]-nicotinamide] | 310 |
| COc1cnc(-c2cc(Cl)ccc2F)nc1Nc1ccncc1C(=O)NCCCNC(=O)COC1O[C@H](COC(C)=O)[C@@H](OC(C)=O)[C@H](OC(C)=O)[C@H]1OC(C)=O (some centres unmarked) [Compound 133] | 327 |
| COc1cnc(-c2cc(Cl)ccc2F)nc1Nc1ccncc1C(=O)NCCCN1CCCC1C(=O)N(C)C (centres unmarked) [Compound 81, 4-[2-(5-Chloro-2-fluoro-phenyl)-5-methoxy-pyrimidin-4-ylamino]-N-[3-(2-dimethylcarbamoyl-pyrrolidin-1-yl)-propyl]-nicotinamide] | 120 |
| COc1cnc(-c2cc(Cl)ccc2F)nc1Nc1ccncc1C(=O)NOCC1CC1 [Compound 129, 4-[2-(5-Chloro-2-fluoro-phenyl)-5-methoxy-pyrimidin-4-ylamino]-N-cyclopropylmethoxy-nicotinamide] | 59 |
| O=C(NC1CC1)c1cnccc1Nc1nc(-c2cc(Cl)ccc2F)ncc1Br [Compound 108, 4-[5-Bromo-2-(5-chloro-2-fluoro-phenyl)-pyrimidin-4-ylamino]-N-cyclopropyl-nicotinamide] | 2500 |
| COc1cnc(-c2cc(Cl)ccc2F)nc1Nc1ccncc1C(=O)N[C@H]1CN[C@@H](C(=O)N(C)C)C1 [Compound 107, 4-[2-(5-Chloro-2-fluoro-phenyl)-5-methoxy-pyrimidin-4-ylamino]-N-(5-dimethylcarbamoyl-pyrrolidin-3-yl)-nicotinamide] | 90 |
| COc1cnc(-c2cc(Cl)ccc2F)nc1Nc1ccncc1C(=O)NCCCNC(C)C [Compound 131, 4-[2-(5-Chloro-2-fluoro-phenyl)-5-methoxy-pyrimidin-4-ylamino]-N-(3-isoopropyl-amino-propyl)-nicotinamide] | 21 |
| CONC(=O)c1cnccc1Nc1nc(-c2cc(Cl)ccc2F)ncc1OC [Compound 120, 4-[2-(5-Chloro-2-fluoro-phenyl)-5-methoxy-pyrimidin-4-ylamino]-N-methoxy-nicotinamide] | 190 |
| O=C(NC1CC1)c1cnccc1Nc1nc(-c2cc(Cl)ccc2F)ncc1N1CCCC1 [Compound 21, 4-[2-(5-Chloro-2-fluoro-phenyl)-5-pyrrolidin-1-yl-pyrimidin-4-ylamino]-N-cyclopropyl-nicotinamide] | 180 |
| COc1cnc(-c2cc(Cl)ccc2F)nc1Nc1ccncc1C(=O)NC1CCN(CCC2O[C@H](CO)[C@@H](O)[C@H](O)[C@H]2O)CC1 (some centres unmarked) [Compound 137, 4-[2-(5-Chloro-2-fluoro-phenyl)-5-methoxy-pyrimidin-4-ylamino]-N-{1-[2-(3,4,5-trihydroxy-6-hydroxymethyl-tetrahydro-pyran-2-yl)-ethyl]-piperidin-4-yl}-nicotinamide] | 18 |
| COc1cnc(-c2cc(Cl)ccc2F)nc1Nc1ccncc1C(=O)NC[C@H]1O[C@@H](O)[C@H](O)[C@@H](O)[C@@H]1O [Compound 34, 4-[2-(5-Chloro-2-fluoro-phenyl)-5-methoxy-pyrimidin-4-ylamino)-N-(3,4,5,6-tetahydroxy-tetrahrydro-pyran-2-ylmethyl)-nicotinamide] | 1160 |
| COc1cnc(-c2cc(Cl)ccc2F)nc1Nc1ccncc1C(=O)NCC(=O)O [Compound 2, ({4-[2-(5-Chloro-2-fluoro-phenyl)-5-methoxy-pyrimidin-4-ylamino]-pyridine 3-carbonyl}-amino)-acetic acid] | 920 |
| COC(=O)[C@H]1C[C@@H](NC(=O)c2cnccc2Nc2nc(-c3cc(Cl)ccc3F)ncc2OC)CN1 [Compound 89, 4-({4-[2-(5-Chloro-2-fluoro-phenyl)-5-methoxy-pyrimidin-4-ylamino]-pyridine-3-carbonyl}-amino)-pyrrolidine-2-carboxylic acid methyl ester] | 190 |
| CNC(=O)c1cnccc1Nc1nc(-c2cc(Cl)ccc2F)ncc1Cl [Compound 119, 4-[5-Chloro-2-(5-chloro-2-fluoro-phenyl)-pyrimidin-4-ylamino]-N-methyl-nicotinamide] | 155 |
| COc1ccc(NC(=O)NCCCNC(=O)c2cnccc2Nc2nc(-c3cc(Cl)ccc3F)ncc2OC)cc1OC [Compound 67, 4-[2-(5-Chloro-2-fluoro-phenyl)-5-methoxy-pyrimidin-4-ylamino]-N-{3-[3-(3,4-dimethoxy-phenyl)-ureido]-propyl}-nicotinamide] | 440 |
| COc1cnc(-c2cc(Cl)ccc2F)nc1Nc1ccncc1C(=O)NCC(O)CN (centres unmarked) [Compound 63, N-(3-Amino-2-hydroxy-propyl)-4-[2-(5-chloro-2-fluoro-phenyl)-5-methoxy-pyrimidin-4-ylamino]-nicotinamide] | 100 |
| CNC(=O)NCCCNC(=O)c1cnccc1Nc1nc(-c2cc(Cl)ccc2F)ncc1OC [Compound 74, 4-[2-(5-Chloro-2-fluoro-phenyl)-5-methoxy-pyrimidin-4-ylamino]-N-[3-(3-methyl-ureido)-propyl]-nicotinamide] | 150 |
| CNC(=O)[C@@H]1CCCN1CCCNC(=O)c1cnccc1Nc1nc(-c2cc(Cl)ccc2F)ncc1OC [Compound 122, 4-[2-(5-Chloro-2-fluoro-phenyl)-5-methoxy-pyrimidin-4-ylamino]-N-[3-(2-methylcarbamoyl-pyrrolidin-1-yl)-propyl]-nicotinamide] | 53 |
| COc1cnc(-c2cc(Cl)ccc2F)nc1Nc1ccncc1C(=O)NCCNCCOC1O[C@H](CO)[C@@H](O)[C@H](O)[C@H]1O (some centres unmarked) [Compound 144, 4-[2-(5-chloro-2-fluoro-phenyl)-5-methoxy-pyrimidin-4-ylamino]-N-{2-[2-(3,4,5-trihydroxy-6-hydroxymethyl-tetrahydro-pyran-2-yloxy)-ethylamino]-ethyl)-nicotinamide] | 10 |
| COc1cnc(-c2cc(Cl)ccc2F)nc1Nc1ccncc1C(=O)NCCNCCOC1O[C@H](COC(C)=O)[C@@H](OC(C)=O)[C@H](OC(C)=O)[C@H]1OC(C)=O (some centres unmarked) [Compound 142, Acetic acid 3,4,5-triacetoxy-6-(2-[2-({4-[2-(5-chloro-2-fluoro-phenyl)-5-methoxy-pyrimidin-4-ylamino]-pyridine-3-carbonyl]-amino)-ethylamino]-ethoxy}tetrahydro-pyran-2-ylmethyl ester] | 10 |

same assay, conditions: 10 uM ATP, 170 nM TGFβ R1, room temperature 20 minutes, read-out: IC50 for Kinase Inhibition

| Compound | IC50 [nM] |
| --- | --- |
| O=C(c1cnccc1Nc1nc(-c2cc(Cl)ccc2F)ncc1C1CCCC1)N1CCOCC1 [Compound 227, {4-[2-(5-Chloro-2-fluoro-phenyl)-5-cyclopentyl-pyrimidin-4-ylamino]-pyridin-3-yl}-morpholin-4-yl-methanone] | 330 |
| CC(C)c1cnc(-c2cc(Cl)ccc2F)nc1Nc1cc[n+]([O-])cc1C(=O)NCC(C)(C)O [Compound 196, 4-[2-(5-Chloro-2-fluoro-phenyl)-5-isopropyl-pyrimidin-4-ylamino]-N-(2-hydroxy-2-methyl-propyl)-1-oxy-nicotinamide] | 245 |
| CC(C)c1cnc(-c2cc(Cl)ccc2F)nc1Nc1ccncc1C(=O)NC1CC1CO (centres unmarked) [Compound 172, 4-[2-(5-Chloro-2-fluoro-phenyl)-5-isopropyl-pyrimidin-4-ylamino]-N-(2-hydroxymethyl-cyclopropyl)-nicotinamide] | 5 |
| CC(C)c1cnc(-c2cc(Cl)ccc2F)nc1Nc1ccncc1C(=O)NC[C@H](C)OC(=O)CN [Compound 229, Amino-acetic acid 2-{[4-[2-(5-chloro-2-fluoro-phenyl)-5-isopropyl-pyrimidin-4-ylamino]-pyridine-3-carbonyl}-amino]-1-methyl-ethyl ester] | 19 |
| COc1cnc(-c2cc(Cl)ccc2F)nc1Nc1ccncc1C(=O)C(=O)N(C)C [Compound 239, 2-{4-[2-(5-Chloro-2-fluoro-phenyl)-5-methoxy-pyrimidin-4-ylamino]-pyridin-3-yl]-N,N-dimethyl-2-oxo-acetamide] | 7740 |
| CC(C)c1cnc(-c2cc(Cl)ccc2F)nc1Nc1ccncc1C(=O)NCCCN1CCCC1 [Compound 161, 4-[2-(5-Chloro-2-fluoro-phenyl)-5-isopropyl-pyrimidin-4-ylamino]-N-(3-pyrrolidin-1-yl-propyl)-nicotinamide] | 4 |
| CCOCCCNC(=O)c1cnccc1Nc1nc(-c2cc(Cl)ccc2F)ncc1C(C)C [Compound 187, 4-[2-(5-Chloro-2-fluoro-phenyl)-5-isopropyl-pyrimidin-4-ylamino]-N-(3-ethoxy-propyl)-nicotinamide] | 12 |
| COc1cnc(-c2cc(Cl)ccc2F)nc1Nc1ccncc1C(=O)NCCCCCNC(=O)CCCC[C@H]1SC[C@@H]2NC(=O)N[C@@H]21 [Compound 202, 4-[2-(5-Chloro-2-fluoro-phenyl)-5-methoxy-pyrimidin-4-ylamino]-N-{5-[5-(2-oxo-hexahydro-thieno[3,4-d]imidazol-6-yl)-pentanoylamino]-pentyl]-nicotinamide] | 54 |
| CC(C)c1cnc(-c2cc(Cl)ccc2F)nc1Nc1ccncc1C(=O)N1CCC[C@H](O)C1 [Compound 214, {4-[2-(5-Chloro-2-fluoro-phenyl)-5-isopropyl-pyrimidin-4-ylamino]-pyridin-3-yl}-(3-hydroxy-piperidin-1-yl)-methanone] | 283 |
